IC50 data for four compounds are collected here from BindingDB's records for doi:10.1016/S0960-894X(01)80381-4 (n/a, 1994).

The assay in a line: Inhibition of 10 uM ADP-induced human gel filtered platelet aggregation with 0.1 mg/mL human fibrinogen.

SMILES strings stand for the structures.

The IC50 is the concentration needed to halve the response being measured. Read a high IC50 as lower potency. Consider `O=C(O)CCN1Cc2ccc(C(=O)NCCC3CCNCC3)cc2C1=O` [3-[1-Oxo-6-(2-piperidin-4-yl-ethylcarbamoyl)-1,3-dihydro-isoindol-2-yl]-propionic acid], for which the IC50 worked out at 10000 µM.

`O=C(O)CCNC(=O)c1cccc(C(=O)NCC2CCNCC2)c1` [3-{3-[(Piperidin-4-ylmethyl)-carbamoyl]-benzoylamino}-propionic acid] showed a half-inhibitory concentration (IC50) of 330 µM.

Take `O=C(O)CCNC(=O)c1ccc2c(c1)C(=O)N(CCC1CCNCC1)C2` [3-{[3-Oxo-2-(2-piperidin-4-yl-ethyl)-2,3-dihydro-1H-isoindole-5-carbonyl]-amino}-propionic acid(L-709780)]: the IC50 worked out at 25 µM. This IC50 is about 13-fold lower than that of the compound before.

In the case of `O=C(O)CCNC(=O)c1ccc2c(c1)C(=O)C(CCC1CCNCC1)C2` (centres undefined) [3-{[3-Oxo-2-(2-piperidin-4-yl-ethyl)-indane-5-carbonyl]-amino}-propionic acid], inhibition was half-maximal at 2300 µM (IC50).
